The text below walks through data of US20120295247A1, “PORCINE SEMINAL MATERIAL COMPOSITION FOR ARTIFICIAL INSEMINATION OF SOWS” (GENES DIFFUSION, priority 2009, published 2012).

In this data set the test system is spermatozoa present in free semen. From the text:
In order to obtain efficient fertilization, more than 50% of the spermatozoa have to be […] (i.e. having an individual displacement velocity of more than 20 micrometers per second).
Gedil® is a diluting agent consisting of a biological medium favorable to preservation of spermatozoa.

Turning to `[Ba+2].[Cl-].[Cl-]` [BaCl2, barium chloride], where the note is “BaCl2 at 5 or 10% on free semen, after two days”, the “motility of the spermatozoa” value is “significant reduction”. Moreover, where the note is “products present in the capsules”, the “effect on essential properties (such as the motility) of porcine spermatozoa” value was “alter the essential properties”. Also, for the setting “spermatozoa diluted in media other than Gedil, addition of BaCl2”, the “toxicity (or stress) for spermatozoa” value was “toxicity”.
